According to patent US10639298B2 (Biohaven Pharmaceutical Holding Company Ltd., priority 2015, dated 2020):

Columns and labels:
[1] = system: Melanoma C8161 cells; assay: Inhibition of human melanoma cell xenograft growth; assay type: in vivo, nude mice; settings: P<0.01 (t test)
Procedure: Melanoma C8161 cells were inoculated s.c. into nude mice at […]. […] Mice were treated every day for 21 days, and tumor sizes were measured twice weekly with a Vernier caliper.

[2] = Rat pharmacokinetic studies of prodrug and released riluzole (IV or oral); assay type: in vivo, Sprague-Dawley rats
Procedure: Rat Pharmacokinetic Studies of the Compounds of the Disclosure:
Blood samples were collected at pre-determined time points including a 0 h time point and usually between 7 and 8 additional time points not exceeding a 24 h period.
Plasma samples were extracted and analyzed using the methods described in Plasma Sample Extraction and Analysis. All data are expressed as ng/mL of the free base. Samples that were below the limit of quantification (0.5 ng/mL) were not used in the calculation of averages.
Pharmacokinetic parameters were calculated from the time course of the plasmaconcentrations. Pharmacokinetic parameters were determined with Phoenix Winnonlin (v6.3) software using a non-compartmental model. The maximum plasma concentration (Cmax) and time to the maximum plasma concentration (Tmax) of the compound of the disclosure were observed from the data. The area under the concentration-time curve (AUC) of the compound of the disclosure was calculated using the trapezoidal formula with calculation to the last quantifiable data point, and to infinity if applicable. Plasma half-life (t½) was calculated from 0.693/slope of the terminal elimination phase. Mean residence time, MRT, was calculated by dividing the area under the moment curve (AUMC) by the AUC. Any samples below the limit of quantitation (0.5 ng/mL) were treated as zero for pharmacokinetic data analysis.
Plasma Sample Extraction and Analysis:
Analytical stock solutions (1.00 mg/mL of the free compound of the disclosure) were prepared in DMSO. Standards were prepared in diluted matrix containing 1 part 10% formic acid and 9 parts Sprague-Dawley rat plasma containing sodium heparin as the anticoagulant (pre-diluted with 1 part of 0.5M citric acid and 9 parts whole blood). Working solutions were prepared in 50:50 acetonitrile:water. Working solutions were then added to plasma to make calibration standards to final concentrations of 1000, 500, 100, 50, 10, 5, 1, and 0.5 ng/mL. Standards contained both the test article and riluzole. Standards were treated identically to the study samples.
Plasma samples were extracted via acetonitrile precipitation on a Tomtec Quadra 96-Model 320 liquid handling system in a 96-well plate format.

[3] = fasted male Sprague Dawley rats, IV, prodrug dose 2.8 mg/Kg
[4] = fasted male Sprague Dawley rats, PO 14.6 mg/kg

Compound of the disclosure AUClast [2, 3]: 1526 ng·h/mL
Compound of the disclosure Cl [2, 3]: 29.7 mL/min/kg
Compound of the disclosure Vss [2, 3]: 3.57 L/kg
Compound of the disclosure t1/2 ([2]; fasted male Sprague Dawley rats, IV, prodrug dose 2.8 mg/Kg, 2.8 mg/kg): 1.92 h
Prodrug AUClast (Mean) [2, 4]: 2259 ng·h/mL
Prodrug Cmax (Mean) [2, 4]: 213 ng/mL
Prodrug t1/2 (Mean) [2, 4]: 3.8 h
Prodrug tmax (Mean) [2, 4]: 1.80 h
Half life on conversion to Riluzole ([2]; intravenous administration): moderate to long half life
Half life on conversion to Riluzole ([2]; oral administration): long half life
Oral bioavailability ([2]; oral administration): high oral bioavailability
AUC(0-t) ([2]; rat, plasma, fasted male Sprague Dawley rats, IV, prodrug dose 2.8 mg/Kg, read-out: Compound of the disclosure AUClast): 1600 ng·h/mL
clearance ([2]; rat, plasma, fasted male Sprague Dawley rats, IV, prodrug dose 2.8 mg/Kg, read-out: Compound of the disclosure Cl (converted)): 27.8 mL/min/kg
Vd ([2]; rat, plasma, fasted male Sprague Dawley rats, IV, prodrug dose 2.8 mg/Kg, read-out: Compound of the disclosure Vss): 3.51 L/kg
Compound: CN(CC(=O)Nc1nc2ccc(OC(F)(F)F)cc2s1)C(=O)CNC(C)(C)C [Example 125, 2-(tert-butylamino)-N-methyl-N-(2-oxo-2-((6-(trifluoromethoxy)benzo[d]thiazol-2-yl)amino)ethyl)acetamide]
Tumor volume vs untreated or vehicle-treated controls ([1]; 4.9 mg/kg (threefold lower in molar terms) p.o. gavage every day for 21 days): significant reduction in tumor volume
Tumor volume vs untreated or vehicle-treated controls ([1]; 14.6 mg/kg (equimolar to riluzole) p.o. gavage every day for 21 days): significant reduction in tumor volume
